From the supplement of paper PMC4862054

How the values were obtained:
Settings in all cases: incubation time: 72 h
[1] = system: CAL-120; assay: normalised response (% of control), CellTox Green; higher = less cell death (100 = DMSO, 0 = benzethonium chloride kill control)
Summary of the method: (§1)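 Breast cancer cell lines were exposed for 72 h in 384-well plates to compound at 5 concentrations, 10-fold apart, covering a 10,000-fold range fixed for each compound. Plates were read for CellTox Green fluorescence and CellTiter-Glo luminescence and normalised to 0.1 % DMSO (100) and a positive kill control (0). Each value is the normalised signal at one concentration of the series.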

[2] = system: Hs578T; assay: as above
Summary of the method: as §1

[3] = system: DU-4475; assay: as above
Summary of the method: as §1

[4] = system: BT-474; assay: as above
Summary of the method: as §1

[5] = system: HCC1937; assay: as above
Summary of the method: as §1

[6] = system: HCC1143; assay: as above
Summary of the method: as §1

[7] = system: BT-549; assay: as above
Summary of the method: as §1

[8] = system: MDA-MB-436; assay: as above
Summary of the method: as §1

[9] = system: MDA-MB-468; assay: as above
Summary of the method: as §1

[10] = system: CAL-85-1; assay: as above
Summary of the method: as §1

[11] = system: MFM-223; assay: as above
Summary of the method: as §1

[12] = system: HDQ-P1; assay: as above
Summary of the method: as §1

[13] = system: CAL-51; assay: as above
Summary of the method: as §1

[14] = system: MDA-MB-231; assay: as above
Summary of the method: as §1

[15] = system: HCC1599; assay: drug sensitivity score (DSS), CellTiter-Glo (DSS (AUC-based score)); higher = stronger drug effect (viability inhibition or cytotoxicity); extreme values may be limits of the assay
Summary of the method: (§2)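 The area under the fitted dose-response curve was used to calculate the drug sensitivity score. Cells from breast cancer lines were incubated for 72 h in 384-well plates with compound at 5 concentrations spaced 10-fold over a 10,000-fold range specific to each compound. Plates were read for CellTox Green and then CellTiter-Glo, and normalised to 0.1 % DMSO and a positive kill control.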

[16] = system: DU-4475; assay: as above
Summary of the method: as §2

[17] = system: BT-474; assay: as above
Summary of the method: as §2

[18] = system: MDA-MB-453; assay: as above
Summary of the method: as §2

[19] = system: CAL-148; assay: as above
Summary of the method: as §2

[20] = system: HCC1937; assay: as above
Summary of the method: as §2

[21] = system: HCC1143; assay: as above
Summary of the method: as §2

[22] = system: BT-549; assay: as above
Summary of the method: as §2

[23] = system: MDA-MB-436; assay: as above
Summary of the method: as §2

[24] = system: SK-BR-3; assay: as above
Summary of the method: as §2

[25] = system: CAL-85-1; assay: as above
Summary of the method: as §2

[26] = system: MCF-10A; assay: as above
Summary of the method: as §2

[27] = system: HDQ-P1; assay: as above
Summary of the method: as §2

[28] = system: MDA-MB-231; assay: as above
Summary of the method: as §2

SMILES	normalised response [1] [%]	normalised response [2] [%]	normalised response [3] [%]	normalised response [4] [%]	normalised response [5] [%]	normalised response [6] [%]	normalised response [7] [%]	normalised response [8] [%]	normalised response [9] [%]	normalised response [10] [%]	normalised response [11] [%]	normalised response [12] [%]	normalised response [13] [%]	normalised response [14] [%]	drug sensitivity score [15]	drug sensitivity score [16]	drug sensitivity score [17]	drug sensitivity score [18]	drug sensitivity score [19]	drug sensitivity score [20]	drug sensitivity score [21]	drug sensitivity score [22]	drug sensitivity score [23]	drug sensitivity score [24]	drug sensitivity score [25]	drug sensitivity score [26]	drug sensitivity score [27]	drug sensitivity score [28]
CCC1=C[C@@H]2CN(C1)Cc1c([nH]c3ccccc13)[C@@](C(=O)OC)(c1cc3c(cc1OC)N(C)[C@H]1[C@@](O)(C(=O)OC)[C@H](OC(C)=O)[C@]4(CC)C=CCN5CC[C@]31[C@@H]54)C2 [Vinorelbine] (10000 nM)	75.5	-16.6	90.9	59.1	83.1	106	43.6	70.8	5.11	71	42.7	97.8	7	-5.22	–	–	–	–	–	–	–	–	–	–	–	–	–	–
CC(=O)Nc1ccc(C(=O)Nc2ccccc2N)cc1 [Tacedinaline]	–	–	–	–	–	–	–	–	–	–	–	–	–	–	0	0	0	0	0	0	0	0	0	0	0	0	0	0
CN(N=O)C(=O)N[C@@H](C=O)[C@@H](O)[C@H](O)[C@H](O)CO [Streptozocin] (10000 nM)	110	136	98.1	105	71.6	–	96.1	68.7	64.1	80.7	88.1	110	102	106	–	–	–	–	–	–	–	–	–	–	–	–	–	–
COc1cc([C@@H]2c3cc4c(cc3[C@@H](O[C@@H]3O[C@@H]5CO[C@@H](C)O[C@H]5[C@H](O)[C@H]3O)[C@H]3COC(=O)[C@H]23)OCO4)cc(OC)c1O [Etoposide] (10000 nM)	75.7	88.2	78.4	97.3	106	98.3	85.4	80.9	-48	34.3	103	109	36.8	61	–	–	–	–	–	–	–	–	–	–	–	–	–	–
